Test [1] concerns the target T1, PIKFYVE (Homo sapiens, UniProt Q9Y2I7). As to the kind of experiment: PIKFYVE assay (luciferase ADP-Glo kinase assay, Promega). The format is biochemical. An outline of the steps:
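Kinase activity measured with a luciferase-based ADP-Glo read-out, which quantifies ADP formed by the enzyme.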

Test [2] deals with T1, PIKFYVE. As to the kind of experiment: Cell-based Pikfyve inhibition activity assay (EEA1 staining, mean vesicle size in BJ fibroblast cells). As to conditions: Table 4, 4 hours treatment, 3 μM Apilimod = 100% inhibition. The procedure: BJ fibroblast cells were obtained from American Type Cell Culture (ATCC, CRL-2522). The cells were maintained in DMEM (Genesee Scientific, 25-500) supplemented with 10% fetal bovine serum (Genesee Scientific, 25-514) and 1% penicillin-streptomycin (Genesee Scientific, 25-512) at 37° C. in the atmosphere 5% CO2. BJ fibroblasts were plated into black flat clear bottom 96-well plates (Grenier, 655090) at a density of 3×10^3 per well and were allowed to attach in culture for 8-10 hours before drug treatment. Drugs were tested at eleven doses separated by 3 fold from 0.03 nM to 3000 nM in triplicates for 4 hours at 37° C. After 4 hours, treatment media was aspirated and replaced with 4% Paraformaldehyde (Electron Microscopy Science, 15714-S) and cells were fixed at room temperature for 5 minutes. 4% PFA in wells were then discarded and replaced with a blocking buffer consisting of 1×PBS with 0.1% Tween (Sigma-Aldrich, P1754-500), 5% Donkey Serum (Jackson ImmunoResearch, 017-000-121), and 1% BSA (Caisson Labs, B005-50GM) and incubated at room temperature for 30 minutes. Blocking buffer was then discarded and replaced with a primary EEA1 antibody (Fisher Scientific, BD610457) in a 1:1000 dilution and incubated at 4° C. overnight. Following overnight incubation, plates were washed with 1×PBS three times and incubated with secondary antibody Donkey anti-Mouse IgG, Alexa Fluor 555 (Invitrogen, A31570) (1:1000 dilution) for 1 hour at room temperature in the dark. Subsequently cell plates were washed with 1×PBS three times and can be stored at 4° C. if not being proceeding with imaging procedure.
Images were acquired with 20× objective (ImageXpress MicroConfocal, Molecular Devices) creating z-series of 5 planes (5 steps, […]), 16 tiles per well. Images were then analyzed using a custom CellProfiler protocol to obtain mean vesicle size. The mean vesicle size from 16 images was used as the output for each well. The mean vesicle size from 0.5% DMSO treated condition was considered as having no Pikfyve inhibition activity and the 3 μM Apilimod treated condition was considered as having 100% inhibition activity. The mean vesicle size was converted to % inhibition activity and the data was fitted to a dose-response curve using log(inhibitor) vs normalized response-variable slope using GraphPad Prism.

Molecules are shown by their SMILES.

These results are taken from patent US20230135152A1 (ACURASTEM INCORPORATED, priority 2020, published 2023).

T1 sequence (Q9Y2I7 whole entry): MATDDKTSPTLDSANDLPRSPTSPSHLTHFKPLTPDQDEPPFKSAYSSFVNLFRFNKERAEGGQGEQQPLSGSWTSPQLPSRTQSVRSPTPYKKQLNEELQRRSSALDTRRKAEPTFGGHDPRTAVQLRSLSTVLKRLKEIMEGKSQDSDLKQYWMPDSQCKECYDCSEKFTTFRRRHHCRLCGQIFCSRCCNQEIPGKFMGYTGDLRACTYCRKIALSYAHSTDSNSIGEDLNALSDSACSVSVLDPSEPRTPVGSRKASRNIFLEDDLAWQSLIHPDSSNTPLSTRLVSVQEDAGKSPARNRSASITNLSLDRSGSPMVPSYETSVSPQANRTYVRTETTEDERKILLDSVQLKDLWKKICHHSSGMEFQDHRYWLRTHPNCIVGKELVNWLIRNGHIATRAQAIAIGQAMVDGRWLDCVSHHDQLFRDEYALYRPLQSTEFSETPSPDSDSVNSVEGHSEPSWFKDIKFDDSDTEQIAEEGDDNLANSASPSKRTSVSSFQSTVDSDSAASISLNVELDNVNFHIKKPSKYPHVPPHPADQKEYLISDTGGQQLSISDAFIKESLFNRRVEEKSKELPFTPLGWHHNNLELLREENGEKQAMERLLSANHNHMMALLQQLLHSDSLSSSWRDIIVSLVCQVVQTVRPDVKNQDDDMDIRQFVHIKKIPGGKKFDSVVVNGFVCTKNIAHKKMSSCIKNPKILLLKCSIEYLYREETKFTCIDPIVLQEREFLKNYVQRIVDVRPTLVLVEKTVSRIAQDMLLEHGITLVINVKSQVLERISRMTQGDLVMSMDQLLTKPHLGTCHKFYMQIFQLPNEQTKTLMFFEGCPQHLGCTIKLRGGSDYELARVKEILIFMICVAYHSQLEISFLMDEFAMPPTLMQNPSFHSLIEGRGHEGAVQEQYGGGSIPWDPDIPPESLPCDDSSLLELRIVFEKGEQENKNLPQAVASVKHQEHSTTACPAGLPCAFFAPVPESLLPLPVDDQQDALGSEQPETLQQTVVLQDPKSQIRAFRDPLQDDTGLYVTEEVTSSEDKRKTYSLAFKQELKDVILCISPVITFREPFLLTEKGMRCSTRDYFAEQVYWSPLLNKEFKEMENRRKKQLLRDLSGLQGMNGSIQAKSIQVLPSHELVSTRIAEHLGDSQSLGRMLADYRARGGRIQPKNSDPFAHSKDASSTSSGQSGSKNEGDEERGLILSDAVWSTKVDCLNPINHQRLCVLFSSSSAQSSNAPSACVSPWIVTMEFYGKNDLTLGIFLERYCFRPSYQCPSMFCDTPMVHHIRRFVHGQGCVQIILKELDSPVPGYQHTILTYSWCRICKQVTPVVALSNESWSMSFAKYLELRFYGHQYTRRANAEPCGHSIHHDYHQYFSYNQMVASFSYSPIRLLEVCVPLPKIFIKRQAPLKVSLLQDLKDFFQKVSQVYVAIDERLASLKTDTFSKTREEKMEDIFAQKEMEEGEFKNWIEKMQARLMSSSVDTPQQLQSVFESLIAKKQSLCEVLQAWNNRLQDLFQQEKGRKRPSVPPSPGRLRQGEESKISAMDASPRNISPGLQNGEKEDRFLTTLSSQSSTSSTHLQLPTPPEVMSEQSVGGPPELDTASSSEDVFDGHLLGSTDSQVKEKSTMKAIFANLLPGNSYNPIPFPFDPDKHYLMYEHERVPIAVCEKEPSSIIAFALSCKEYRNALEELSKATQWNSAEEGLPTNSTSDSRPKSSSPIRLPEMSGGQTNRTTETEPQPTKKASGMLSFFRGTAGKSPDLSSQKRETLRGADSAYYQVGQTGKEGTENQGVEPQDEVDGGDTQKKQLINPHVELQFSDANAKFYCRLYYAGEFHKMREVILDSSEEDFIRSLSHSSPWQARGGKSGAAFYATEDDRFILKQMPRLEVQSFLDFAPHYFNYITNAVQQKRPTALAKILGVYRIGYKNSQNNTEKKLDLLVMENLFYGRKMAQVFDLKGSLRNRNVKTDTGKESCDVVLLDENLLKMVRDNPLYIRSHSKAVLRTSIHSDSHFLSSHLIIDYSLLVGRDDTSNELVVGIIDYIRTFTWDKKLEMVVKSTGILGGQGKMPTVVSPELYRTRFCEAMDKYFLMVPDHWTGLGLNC

`COC(C)(CO)c1nc(N2CCOCC2)cc(-n2ccc(-c3cccc(C)c3)n2)n1` (centres unmarked) [Compound 227, 2-methoxy-2-(4-morpholino-6-(3-(m-tolyl)-1H-pyrazol-1-yl)pyrimidin-2-yl)propan-1-ol]: the IC50 – broadly, the concentration at which inhibition is half-maximal – on PIKFYVE [1] (Table 3) was under 3 nM. Also, the concentration giving a half-maximal response (EC50) (in general, the concentration needed to bring the measured effect to its halfway point) at PIKFYVE [2] was 100 to 500 nM.
`COCc1cc(-c2ccccc2)n(-c2cc(N3CCOCC3)nc(OCCc3cnn(C)c3)n2)n1` [Compound 77, 4-(6-(3-(methoxymethyl)-5-phenyl-1H-pyrazol-1-yl)-2-(2-(1-methyl-1H-pyrazol-4-yl)ethoxy)pyrimidin-4-yl)morpholine] registered an IC50 against PIKFYVE [1] (Table 2) of 5 to 100 nM. The EC50 on PIKFYVE [2] was in the range of 500 to 5000 nM.
For the compound `CO[C@H](CO)c1nc(N2CCOCC2)cc(-n2nc(-c3cccc(C)c3)cc2C)n1` (single isomer, unassigned) [Compound 224], the half-maximal inhibitory concentration (IC50) on PIKFYVE [1] (Table 3) was in the range of 3 to 10 nM. This compound gave an EC50 at PIKFYVE [2] of 100 to 500 nM.
The matching figures for `COC[C@@H](O)c1nc(N2CCOCC2)cc(-n2ccc(-c3cccc(C)c3)n2)n1` (single isomer, unassigned) [Compound 170]: 3 to 10 nM and 100 to 500 nM.
Compound `COc1cccc(-c2ccn(-c3cc(N4CCOCC4)nc([C@H](CO)OC)n3)n2)c1` [Compound 263, (R)-2-methoxy-2-(4-(3-(3-methoxyphenyl)-1H-pyrazol-1-yl)-6-morpholinopyrimidin-2-yl)ethan-1-ol] returned an IC50 at PIKFYVE [1] (Table 3) of 10 to 100 nM. This compound yielded an EC50 at PIKFYVE [2] of 100 to 500 nM.
Turning to `Cc1cccc(-c2ccn(-c3cc(N4CCOCC4)nc(OCCc4cnn(CCN(C)C)c4)n3)n2)c1` [Compound 74, N,N-dimethyl-2-(4-(2-((4-morpholino-6-(3-(m-tolyl)-1H-pyrazol-1-yl)pyrimidin-2-yl)oxy)ethyl)-1H-pyrazol-1-yl)ethan-1-amine], at PIKFYVE [1] (Table 2), the IC50 is under 5 nM. The compound also came in with an EC50 on PIKFYVE [2] of 20 to 100 nM.
The compound `Cc1cccc(-c2cc([C@@H](C)O)n(-c3cc(N4CCOCC4)nc(OCCc4cnn(C)c4)n3)n2)c1` (single isomer, unassigned) [Compound 314] registered an IC50 against PIKFYVE [1] (Table 3) of under 3 nM. Further, at PIKFYVE [2], the EC50 is under 20 nM.
Regarding `Cc1cccc(-c2ccn(-c3cc(N4CCOCC4)nc([C@H]4C[C@@H](O)CO4)n3)n2)c1` [Compound 331, (3R,5R)-5-(4-morpholino-6-(3-(m-tolyl)-1H-pyrazol-1-yl)pyrimidin-2-yl)tetrahydrofuran-3-ol], the IC50 at PIKFYVE [1] (Table 3) lay in the range of 3 to 10 nM. Moreover, the EC50 on PIKFYVE [2] lay within 100 to 500 nM.
The like results for `Cc1cccc(-c2ccn(-c3cc(N4CCOCC4)nc(OCC4COC4)n3)n2)c1` [Compound 122, 4-(2-(oxetan-3-ylmethoxy)-6-(3-(m-tolyl)-1H-pyrazol-1-yl)pyrimidin-4-yl)morpholine] were, in that order, 3 to 10 nM and 100 to 500 nM.
`COc1cc(N2CCOCC2)nc(-n2ccc(-c3cccc(C)c3)n2)n1` [Compound 87, 4-(6-methoxy-2-(3-(m-tolyl)-1H-pyrazol-1-yl)pyrimidin-4-yl)morpholine]: the IC50 against PIKFYVE [1] (Table 2) lay in the range of 101 to 1000 nM. Besides, the EC50 on PIKFYVE [2] was in the range of 100 to 500 nM.
Consider `Cc1cccc(-c2ccn(-c3cc(N4CCOCC4)nc(OCCN(C)c4ccccc4)n3)n2)c1` [Compound 100, N-methyl-N-(2-((4-morpholino-6-(3-(m-tolyl)-1H-pyrazol-1-yl)pyrimidin-2-yl)oxy)ethyl)aniline], for which the IC50 against PIKFYVE [1] (Table 3) was 3 to 10 nM. Besides, on PIKFYVE [2], the EC50 is 100 to 500 nM.
`Cc1cccc(-c2ccn(-c3cc(N4CCOCC4)nc(OCCc4sc(C)nc4C)n3)n2)c1` [Compound 98, 4-(2-(2-(2,4-dimethylthiazol-5-yl)ethoxy)-6-(3-(m-tolyl)-1H-pyrazol-1-yl)pyrimidin-4-yl)morpholine] returned an IC50 on PIKFYVE [1] (Table 3) of 3 to 10 nM. In addition, the EC50 on PIKFYVE [2] was under 20 nM.
As for `Cc1cccc(-c2cc(N3CCOCC3)n(-c3cc(N4CCOCC4)nc(OCCc4cnn(C)c4)n3)n2)c1` [Compound 237, 4-(2-(2-(1-methyl-1H-pyrazol-4-yl)ethoxy)-6-(5-morpholino-3-(m-tolyl)-1H-pyrazol-1-yl)pyrimidin-4-yl)morpholine], the 50% inhibitory concentration (IC50) against PIKFYVE [1] (Table 3) is under 3 nM. The same compound had a 50% effective concentration (EC50) on PIKFYVE [2] of under 20 nM.
The matching figures for `Cc1cccc(-c2ccn(-c3cc(N4CCOCC4)nc(CCc4cnn(C)c4)n3)n2)c1` [Compound 223, 4-(2-(2-(1-methyl-1H-pyrazol-4-yl)ethyl)-6-(3-(m-tolyl)-1H-pyrazol-1-yl)pyrimidin-4-yl)morpholine]: under 3 nM and 100 to 500 nM.
The matching figures for `CN(C)Cc1cccc(-c2ccn(-c3cc(N4CCOCC4)nc(OCCc4cnn(C)c4)n3)n2)c1` [Compound 193, N,N-dimethyl-1-(3-(1-(2-(2-(1-methyl-1H-pyrazol-4-yl)ethoxy)-6-morpholinopyrimidin-4-yl)-1H-pyrazol-3-yl)phenyl)methanamine]: under 3 nM and 100 to 500 nM.
With `CO[C@@H](CO)c1nc(N2CCO[C@H](C)C2)cc(-n2ccc(-c3cccc(C)c3)n2)n1` (single isomer, unassigned) [Compound 308], the IC50 at PIKFYVE [1] (Table 3) lay within 10 to 100 nM. This compound also yielded an EC50 at PIKFYVE [2] of 500 to 5000 nM.
Turning to `Cc1cccc(-c2ccn(-c3cc(N4CCOCC4)nc(OCCCC#N)n3)n2)c1` [Compound 175, 4-((4-morpholino-6-(3-(m-tolyl)-1H-pyrazol-1-yl)pyrimidin-2-yl)oxy)butanenitrile], the IC50 at PIKFYVE [1] (Table 3) was under 3 nM. The same compound yielded an EC50 on PIKFYVE [2] of 20 to 100 nM.
`Cc1cccc(-c2ccn(-c3cc(N4CCOCC4)nc(OCCc4cnn(CCO)c4)n3)n2)c1` [Compound 180, 2-(4-(2-((4-morpholino-6-(3-(m-tolyl)-1H-pyrazol-1-yl)pyrimidin-2-yl)oxy)ethyl)-1H-pyrazol-1-yl)ethan-1-ol] showed an IC50 against PIKFYVE [1] (Table 3) of under 3 nM. This compound also returned an EC50 on PIKFYVE [2] of 20 to 100 nM.
On PIKFYVE [1] (Table 2), `Cc1cccc(-c2ccn(-c3cc(N4CCOCC4)nc(OCc4cccnn4)n3)n2)c1` [Compound 54, 4-(2-(pyridazin-3-ylmethoxy)-6-(3-(m-tolyl)-1H-pyrazol-1-yl)pyrimidin-4-yl)morpholine] gave a concentration for half-maximal inhibition (IC50) of under 5 nM. The EC50 at PIKFYVE [2] lay within 20 to 100 nM.
Compound `Cc1cccc(-c2ccn(-c3cc(N4CCOCC4)nc([C@@H](CO)OC(F)F)n3)n2)c1` (single isomer, unassigned) [Compound 309] returned an IC50 against PIKFYVE [1] (Table 3) of 3 to 10 nM. At PIKFYVE [2], the EC50 is 500 to 5000 nM.
The matching figures for `COC(CC#N)c1nc(N2CCOCC2)cc(-n2ccc(-c3ccccc3)n2)n1` (centres unmarked) [Compound 182, 3-methoxy-3-(4-morpholino-6-(3-phenyl-1H-pyrazol-1-yl)pyrimidin-2-yl)propanenitrile]: 10 to 100 nM and 500 to 5000 nM.
At PIKFYVE [1] (Table 2), `CC(=O)c1nc(N2CCOCC2)cc(-n2ccc(-c3cccc(C)c3)n2)n1` [Compound 88, 1-(4-morpholino-6-(3-(m-tolyl)-1H-pyrazol-1-yl)pyrimidin-2-yl)ethan-1-one] registered an IC50 of under 5 nM. On PIKFYVE [2], this compound displayed an EC50 of 100 to 500 nM.
Compound `CO[C@H](CO)c1nc(N2CCOCC2)cc(-n2ccc(-c3cn(C)c4ccccc34)n2)n1` (single isomer, unassigned) [Compound 320] registered an IC50 against PIKFYVE [1] (Table 3) of 3 to 10 nM. This compound also gave an EC50 on PIKFYVE [2] of 20 to 100 nM.
The matching figures for `Cc1cccc(-c2ccn(-c3cc(N4CCOCC4)nc(OCCCc4ccco4)n3)n2)c1` [Compound 112, 4-(2-(3-(furan-2-yl)propoxy)-6-(3-(m-tolyl)-1H-pyrazol-1-yl)pyrimidin-4-yl)morpholine]: 10 to 100 nM and 500 to 5000 nM.
`Cn1cc(CCOc2nc(N3CCOCC3)cc(-n3ccc(C4CC4)n3)n2)cn1` [Compound 123, 4-(6-(3-cyclopropyl-1H-pyrazol-1-yl)-2-(2-(1-methyl-1H-pyrazol-4-yl)ethoxy)pyrimidin-4-yl)morpholine] had an IC50 on PIKFYVE [1] (Table 3) of 10 to 100 nM. The compound further had an EC50 at PIKFYVE [2] of 500 to 5000 nM.
Take `COc1cccc(-c2ccn(-c3cc(N4CCOCC4)nc(N)n3)n2)c1` [Compound 44, 4-(3-(3-methoxyphenyl)-1H-pyrazol-1-yl)-6-morpholino-pyrimidin-2-amine]: at PIKFYVE [1] (Table 2), the IC50 is under 5 nM. This compound had an EC50 on PIKFYVE [2] of 100 to 500 nM.
`Cn1cc(COCc2nc(N3CCOCC3)cc(-n3ccc(-c4ccccc4)n3)n2)cn1` [Compound 298, 4-(2-(((1-methyl-1H-pyrazol-4-yl)methoxy)methyl)-6-(3-phenyl-1H-pyrazol-1-yl)pyrimidin-4-yl)morpholine] showed an IC50 at PIKFYVE [1] (Table 3) of 3 to 10 nM. Further, the EC50 at PIKFYVE [2] was 500 to 5000 nM.
Consider `Cc1cccc(-c2ccn(-c3cc(N4CCOCC4)nc(COCc4cn(C)cn4)n3)n2)c1` [Compound 297, 4-(2-(((1-methyl-1H-imidazol-4-yl)methoxy)methyl)-6-(3-(m-tolyl)-1H-pyrazol-1-yl)pyrimidin-4-yl)morpholine], for which, on PIKFYVE [1] (Table 3), the IC50 was 3 to 10 nM. The same compound gave an EC50 at PIKFYVE [2] of 100 to 500 nM.
